# Measurements reported in US12439922B2, “Plant-based chemicals for Varroa mite control” (priority 2019, dated 2025).
# “And” between values parts separate entries of the source, which are not always exact repeats. Equal entries are not always repeated. Where two headings read alike, the source gives them in different places.
# Columns and labels:
# [1] = test system: Varroa mites (Varroa destructor); assay: LD50 determination for mites (topical application, mortality at 24 h); type: in vivo; conditions: for Mean LD50 / LD50 1 / LD50 2 / LD50 3: topical, mortality at 24 h; for Mean LD50: mean±se of three trials; for LD50 1: trial 1; for LD50 2: trial 2; for LD50 3: trial 3; for estimated LD50: max. dose 3200 ng/mite in three trials
# Protocol: Varroa mites (Varroa destructor) were collected from colonies at the Michigan State University apiary in East Lansing, MI. Mites were collected using the “sugar shake” method (Macedo and Ellis 2002). Approximately 350 bees were brushed from brood frames into a plastic basin and then poured into 473 ml wide-mouth Mason jars fitted with screen lids (3 mm×3 mm mesh). Approximately 8 g powdered sugar were sifted through the screen and the jar was shaken for 20 seconds and let to sit for 3 minutes. The mites then fell through the screen onto a piece of paper. Mites were collected, and the sugar dusts were washed off using moistened paintbrushes. Mites were kept in Petri-dishes with worker pupae and transported to the campus lab for LD50 determination.
# Chemicals were dissolved in acetone serially diluted to obtain appropriate dosages. Each mite was topically applied with 0.2 μl of acetone containing the tested chemicals. A triplicate of 10 mites per dose were then housed in a Petri dish (diameter 3 cm, 34.5° C., RH 75%) with one white-eyed worker pupa as food. Mortality was assessed at 24 h. Mites were considered dead if no movement is observed in response to prodding with a metal probe.
# (§1) For both bee and mite mortality data, control mortality was used to correct the mortality of different doses of drugs (Abbott, 1925). A Log-Probit line was fitted for each treatment from which the LD50 values and 95% confidence intervals were calculated using the R statistical package (R Development Core Team 2008).
# bees = type: in vivo, Apis mellifera
# Protocol: (§2) Picrotoxinin was dissolved in acetone (0.0064 gram picrotoxinin in 1.6 ml acetone=4 ug/ul) and then serially diluted to various doses. A selected amount of picrotoxinin was applied to each bee after CO2 anesthetization. Then, the bees were inoculated with Varroa mites (10 mites on 10 bees per dish). This procedure was employed to ensure that the mites were obtaining the chemical from the bees.
# (§3) The numbers of dead Varroa mites and dead bees were recorded after 2, 4 and 24 hours.
# [2] = Highest amount that dissolves in acetone; type: physicochemical; conditions: in 4 μl acetone
# Protocol: Higher doses to honey bees were not tested because 2 mg was the highest amount one can dissolve with 4 μl acetone.
# honey bees (foragers) = assay: LD50 determination for bees (topical application to foragers, mortality observed for 2 days); type: in vivo, Apis mellifera
# Protocol: Honey bees were obtained from the MSU apiary. Forty to fifty colonies were routinely kept during summer months for experiments. Foragers were used for LD50 determination because they are the most sensitive to toxins.
# Foragers were collected when they were returning to the hive by an insect vacuum. Foragers were briefly anesthetized with carbon dioxide and individual forager was dosed with 4 μl of acetone containing various dosages of insecticide (at least 5 doses per drug) and a control with 4 μl of acetone only. Bees then were caged together (a triplicate of 10 bees per dose per colony) and their mortality observed for 2 days (acute toxicity) in an incubator (34.5° C., RH 75%).
# as §1
# Varroa mites = assay: Picrotoxinin applied to bees inoculated with Varroa mites: dead mites; type: in vivo, Varroa destructor; conditions: for 24-hour dead mite / 4-hour dead mite / 2-hour dead mite: 10 mites on 10 bees per dish
# Protocol: as §2, §3
compound,measurement,setting,value
"CC1(C)C(C=C(Cl)Cl)C1C(=O)OC(C#N)c1ccc(F)c(Oc2ccccc2)c1 (stereo not shown) [Cyfluthrin, reference compound]",Mean LD50,[1],0.63 ± 0.18 ng/mite
same,LD50 1,[1],0.46 ng/mite
same,LD50 2,[1],0.82 ng/mite
same,LD50 3,[1],0.60 ng/mite
Ginkolide A,Mean LD50,[1],535.52±450.90 ng/mite
same,LD50 1,[1],348.63 ng/mite
same,LD50 2,[1],1049.82 ng/mite
same,LD50 3,[1],208.10 ng/mite
CC(C)(C)[C@]1(O)CC2OC(=O)CC23C(=O)OC2OC(=O)[C@H](O)C231 (stereo partly shown) [Bilobalide],estimated LD50,[1],>3200 ng/mite
Ginkolide C,estimated LD50,[1],>3200 ng/mite
"C=C(C)[C@@H]1[C@H]2OC(=O)[C@@H]1[C@]1(O)C[C@H]3O[C@]34C(=O)O[C@H]2[C@]14C [Picrotoxinin, picrotoxinin]",24-hour dead bee,"bees; 0.005 ug/bee, 10 bees per dish",1
same,2-hour dead bee,"bees; 0.1 ug/bee, 10 bees per dish",1
same,4-hour dead bee,"bees; 0.1 ug/bee, 10 bees per dish",1
same,4-hour dead bee,"bees; 1 ug/bee, 10 bees per dish, # = dead perhaps due to leaked sugar syrup",1#
same,24 hr dead bee,bees; treatment 1 ug/ul,0
same,highest amount one can dissolve,[2],2 mg
same,killing of honeybees at highest dose,"honey bees (foragers); 2,000,000 ng (2 mg) per bee in 4 μl acetone",failed to kill any honeybees
same,LD50,"honey bees (foragers); topical to foragers, max dose 2000 ug/bee",>2000 (max dose ug/bee
same,LD50 for this particular trial (FIG. 1),[1]; dose response of FIG. 1,22.61 ng/mite
same,susceptibility of Varroa mites to toxicity compared to honey bees,[1]; mite LD50 versus highest bee dose,"at least 100,000 fold"
same,Mean LD50,[1],20.16 ± 2.00 ng/mite
same,Mean LD50,[1]; listed as picrotoxinin,20.16±2.00 ng/mite
same,LD50 1,[1],20.82 ng/mite
same,LD50 2,[1],22.61 ng/mite
same,LD50 3,[1],17.05 ng/mite
same,24-hour dead mite,Varroa mites; 0.000005 ug/bee,1
same,4-hour dead mite,Varroa mites; 0.00005 ug/bee,1
same,2-hour dead mite,Varroa mites; 0.0005 ug/bee,1
same,4-hour dead mite,Varroa mites; 0.0005 ug/bee,3
same,24-hour dead mite,Varroa mites; 0.0005 ug/bee,3 and 2
same,2-hour dead mite,Varroa mites; 0.005 ug/bee,1
same,4-hour dead mite,Varroa mites; 0.005 ug/bee,1
same,4-hour dead mite,Varroa mites; 0.05 ug/bee,2 and 1
same,24-hour dead mite,Varroa mites; 0.05 ug/bee,5 and 3
same,2-hour dead mite,Varroa mites; 0.1 ug/bee,2
same,4-hour dead mite,Varroa mites; 0.1 ug/bee,5 and 4
same,24-hour dead mite,Varroa mites; 0.1 ug/bee,6 and 9
same,2-hour dead mite,Varroa mites; 1 ug/bee,2 and 4
same,4-hour dead mite,Varroa mites; 1 ug/bee,4 and 5
same,24-hour dead mite,Varroa mites; 1 ug/bee,7 and 10
same,24 hr dead mite,Varroa mites; treatment 1 ug/ul,9 and 10
same,24 hr dead mite,Varroa mites; treatment 4 ug/ul,10
C[C@@H]1C(=O)O[C@H]2[C@H](O)[C@@]34[C@H]5C[C@@H](C(C)(C)C)[C@]36[C@@H](OC(=O)[C@@H]6O)O[C@@]4(C(=O)O5)[C@@]12O [Ginkolide B],estimated LD50,[1],>3200 ng/mite
